The values that follow come from paper PMC8305101, “Synthesis and Cytotoxicity Evaluation of Spirocyclic Bromotyrosine Clavatadine C Analogs” (Marine Drugs, 2021).

Molecules are shown by their SMILES. “And” between values parts separate entries of the source, which are not always exact repeats. Identical values can stand only once. Counter-ions that a name gives are not always drawn. Like-named read-outs stand apart in the source and are kept apart here.

The subject of series [1] is human malignant melanoma A-375 cell line. Put plainly: Cytotoxicity in A-375 melanoma cells (CellTiter-Glo ATP viability). It counts as cell-based. The following applies: for cytotoxicity at 50 µM / CC50: Homo sapiens; for CC50: read-out: CC50 (µM) in A-375 Cells; for Selectivity Index (SI): ratio of CC50 values between Hs27 fibroblasts and A-375 melanoma cells, SD in parentheses. On the procedure: (§1) Analysis of selectivity to cancer cells. The cells were seeded to white frame and clear bottom 96-well plates (Perkin Elmer) at a density of 10,000 cells/well for the human malignant melanoma A-375 cell line (ATCC CRL-1619) and 7500 cells/well for the human skin fibroblast Hs27 cell line (ATCC CRL-1634). The cells were grown at 37 °C, 5% CO2 until they reached 70–80% confluence (approximately 24 h). Stock solutions of test compounds and a positive control (camptothecin, Sigma-Aldrich, St. Louis, MO, USA) were prepared in DMSO and diluted into the assay medium (growth medium with 5% FBS) to the final concentration. Final DMSO concentration was 0.5% in all samples. The culture medium was removed from the plate and compounds added, 200 µL/well. After a 48-h incubation, the amount of ATP, which is directly proportional to the number of viable cells present in culture, was quantified using CellTiter-Glo® Luminescent Cell Viability kit (Promega, Madison, WI, USA), according to manufacturer’s instructions. Origin Graphing and Analysis, version 9.55 (OriginLab, Northampton, MA, USA), was used for determination of CC50 values. The cancer cell selectivity index was calculated as a ratio of CC50 values between Hs27 fibroblasts and A-375 melanoma cells. Standard deviation of selectivity indices was calculated using Equation (1) (1) σ(x¯/y¯)=(σ(x)/x¯)^2+(σ(y)/y¯)^2
(In general: In ATP-based viability assays light output follows the ATP content of the culture.)

Series [2] is described as follows: Cytotoxicity in Hs27 normal skin fibroblasts (CellTiter-Glo ATP viability). It counts as cell-based. Conditions: human, 48-h incubation, mean (SD) of 2–3 independent experiments in triplicate. On the procedure: as §1
The test system of series [3] is caspases 3/7 in A-375 cells. Description: Apoptosis induction assay, caspase-3/7 activity (ApoTox-Glo) in A-375 cells. It counts as cell-based, human. The following applies: 1 × CC50 concentration. On the procedure:
Apoptosis induction assay and imaging. A-375 cells were seeded to white 96-well plates and treated with compounds at 1 × CC50 concentration, 100 µL/well, following the procedure described above. After 24 and 48 h, caspase-3/7 activity was measured using the ApoTox-Glo kit (Promega) following the manufacturer’s instructions. The light microscopy images were taken using 4× phase contrast objective and Cytation5 automated imaging reader (Biotek).

For series [4], the system named is A549 (lung) cancer cell line. The arrangement: method as in doi:10.1016/j.tetlet.2016.10.019. Conditions: cited from earlier work.
The test system of series [5] is MDA-MB-231 (breast) cancer cell line. Also noted: method as in doi:10.1016/j.tetlet.2016.10.019. Conditions: cited from earlier work.
The test system of series [6] is MCF7 (breast) cancer cell line. The arrangement: method as in doi:10.1016/j.tetlet.2016.10.019. The following applies: cited from earlier work.
Series [7] deals with breast cancer cell line MCF-7. Also noted: method as in PMID 32228987. Conditions: MCF-7 breast cancer cells; cited from earlier work.
Series [8] has as its system Malme-3M melanoma cell line. Also noted: method as in PMID 32228987. The following applies: Malme-3M melanoma cells; cited from earlier work.
Series [9] relates to Mel-Juso melanoma cell line. The arrangement: method as in PMID 32228987. The following applies: Mel-Juso melanoma cells; cited from earlier work.
The test system of series [10] is SKMel-147 melanoma cell line. Also noted: method as in PMID 32228987. The following applies: SKMel-147 melanoma cells; cited from earlier work.
The mark [11] stands for this setting: A-375, 48 h, read-out: Primary Test Results (Cytotoxicity % at 50 µM in A-375 Cells), 50 µM, A-375 cells, 48-h incubation, single experiment with three technical replicates.
Where [12] appears, read: read-out: CC50 (µM) in Hs27 Cells.

In the case of `CC[C@@]1(O)C(=O)OCc2c1cc1n(c2=O)Cc2cc3ccccc3nc2-1` [Camptothecin, reference compound], the cytotoxicity at 50 µM in [1] (50 µM, A-375 cells, 48-h incubation, single experiment with three technical replicates, read-out: Primary Test Results (Cytotoxicity % at 50 µM in A-375 Cells)) turned out to be 94.7%. Besides, the CC50 in series [1] (A-375 cells, 48-h incubation, mean (SD) of 2–3 independent experiments in triplicate) is 0.05 µM. For the same molecule, in [1], the “Selectivity Index (SI)” value was 70.9 (0.5). Also, the midpoint of cytotoxicity in series [2] (Hs27 skin fibroblast cells), the CC50 at 48 h, lay at 3.6 µM. For the same molecule, the results for the “Caspase 3/7 induction, fold change relative to DMSO-treated control” value in series [3] (24 h) and in series [3] (48 h) were ~20 fold and “nearly fivefold”, respectively.
As for `COc1ccc(CNC(=O)C2=NOC3(C=CC(=O)C=C3)C2)cc1` [Compound 23, N-(4-Methoxybenzyl)-8-oxo-1-oxa-2-azaspiro[4.5]deca-2,6,9-triene-3-carboxamide], in series [1] (A-375, 48 h), the CC50 turned out to be 1.2 µM. Further, in series [1] (setting [11]), the cytotoxicity at 50 µM was 100%. The “Selectivity Index (SI)” value in series [1] was 1.2 (0.6). Besides, the CC50 at 48 h in [2] (setting [12]) amounted to 1.4 µM.
As for `O=C1C=CC2(C=C1)CC(C(=O)NCCc1c[nH]c3ccccc13)=NO2` [Compound 22, N-[2-(1H-Indol-3-yl)ethyl]-8-oxo-1-oxa-2-azaspiro[4.5]deca-2,6,9-triene-3-carboxamide], the CC50 in series [1] (A-375, 48 h) is 0.7 µM. The cytotoxicity at 50 µM in [1] (setting [11]) amounted to 99.8%. Moreover, in series [1], the “Selectivity Index (SI)” value is recorded as 1.0 (0.3). Besides, the CC50 at 48 h in series [2] (setting [12]) turned out to be 0.7 µM.
Consider `O=C1C=CC2(C=C1)CC(C(=O)N1CCC(O)CC1)=NO2` [Compound 16, 3-(4-Hydroxypiperidine-1-carbonyl)-1-oxa-2-azaspiro[4.5]deca-2,6,9-trien-8-one], for which, in [1] (A-375, 48 h), the CC50 was determined as 4.9 µM. Further, the cytotoxicity at 50 µM in series [1] (setting [11]) is 97.1%. Also, in [1], the “Selectivity Index (SI)” value is recorded as 1.5 (0.2). Besides, the CC50 at 48 h in series [2] (setting [12]) is 7.4 µM.
On to `N=C(N)NCCCCNC(=O)C1=NOC2(C=C(Br)C(=O)C(Br)=C2)C1` [Compound 1-TFA, 7,9-Dibromo-N-(4-guanidinobutyl)-8-oxo-1-oxa-2-azaspiro[4.5]deca-2,6,9-triene-3-carboxamide], for which the “Primary Test Results (Cytotoxicity % at 50 µM in A-375 Cells)” value in [1] (50 µM, A-375 cells, 48-h incubation, single experiment with three technical replicates) was “less than 25% and 0.5%”. In series [4], the “Activity against A549 cancer cell line” value is “moderate activity”. Moreover, the “Activity against MDA-MB-231 cancer cell line” value in [5] was “moderate activity”. The “Activity against MCF7 cancer cell line” value in [6] is reported as “moderate activity”.
As for `O=C1C=CC2(C=C1)CC(C(=O)Nc1ccccn1)=NO2` [Compound 28, 8-Oxo-N-(pyridin-2-yl)-1-oxa-2-azaspiro[4.5]deca-2,6,9-triene-3-carboxamide], the CC50 in series [1] (A-375, 48 h) is 1.9 µM. Moreover, the cytotoxicity at 50 µM in [1] (setting [11]) is 99.6%. Moreover, the “Selectivity Index (SI)” value in series [1] is 0.8 (0.4). In addition, the CC50 at 48 h in [2] (setting [12]) turned out to be 1.5 µM.
On to `O=C1C=CC2(C=C1)CC(C(=O)NCc1cccnc1)=NO2` [Compound 35, 8-Oxo-N-(pyridin-3-ylmethyl)-1-oxa-2-azaspiro[4.5]deca-2,6,9-triene-3-carboxamide], for which, in series [1] (A-375, 48 h), the CC50 turned out to be 1.1 µM. The cytotoxicity at 50 µM in series [1] (setting [11]) came to 97.5%. The “Selectivity Index (SI)” value in series [1] was 2.3 (0.1). For the same molecule, in series [2] (setting [12]), the CC50 at 48 h amounted to 2.5 µM.
Consider `COc1ccc(CCNC(=O)C2=NOC3(C=CC(=O)C=C3)C2)cc1` [Compound 25, N-(4-Methoxyphenethyl)-8-oxo-1-oxa-2-azaspiro[4.5]deca-2,6,9-triene-3-carboxamide], for which, in series [1] (A-375, 48 h), the CC50 came out at 1.2 µM. Also, the cytotoxicity at 50 µM in series [1] (setting [11]) was found to be 100%. For the same molecule, the “Selectivity Index (SI)” value in [1] is reported as 1.7 (0.3). Moreover, the CC50 at 48 h in series [2] (setting [12]) is 2 µM.
The corresponding values for `O=C(Nc1ccc(C(F)(F)F)cn1)C1=NOC2(C=C(Br)C(=O)C(Br)=C2)C1` [Compound 30, 7,9-Dibromo-8-oxo-N-[5-(trifluoromethyl)pyridin-2-yl]-1-oxa-2-azaspiro[4.5]-deca-2,6,9-triene-3-carboxamide] are 3.6 µM, 98.1%, 0.6 (0.2) and 2.3 µM.
The corresponding values for `O=C(Nc1ccccn1)C1=NOC2(C=C(Br)C(=O)C(Br)=C2)C1` [Compound 29, 7,9-Dibromo-8-oxo-N-(pyridin-2-yl)-1-oxa-2-azaspiro[4.5]deca-2,6,9-triene-3-carboxamide] are 2.4 µM, 101%, 2.4 (0.4) and 5.8 µM.
Consider `COC1=C(Br)[C@H](O)[C@@]2(C=C1Br)CC(C(=O)NCC(O)COc1c(Br)cc(C(O)CNC(=O)C3=NO[C@]4(C=C(Br)C(OC)=C(Br)[C@@H]4O)C3)cc1Br)=NO2` (stereo partly shown) [isofistularin-3], for which the “Effect on cell viability” value in [7] was “reduced cell viability”; in [8], “no significant decrease”; in series [9] it was “no significant decrease”; in series [10], “no significant decrease”.
As to `O=C(NCCc1cccnc1)C1=NOC2(C=C(Br)C(=O)C(Br)=C2)C1` [Compound 34, 7,9-Dibromo-8-oxo-N-[2-(pyridin-3-yl)ethyl]-1-oxa-2-azaspiro[4.5]deca-2,6,9-triene-3-carboxamide], the CC50 in [1] (A-375, 48 h) was found to be 5.1 µM. Also, in series [1] (setting [11]), the cytotoxicity at 50 µM is 97%. The “Selectivity Index (SI)” value in series [1] was 1.7 (0.6). In series [2] (setting [12]), the CC50 at 48 h came out at 8.8 µM.
The corresponding values for `O=C(Nc1cc(Cl)cc(Cl)c1)C1=NOC2(C=C(Br)C(=O)C(Br)=C2)C1` [Compound 19, 7,9-Dibromo-N-(3,5-dichlorophenyl)-8-oxo-1-oxa-2-azaspiro[4.5]deca-2,6,9-triene-3-carboxamide] are 9.2 µM, 94.9%, 0.7 (0.5) and 6.8 µM.
Turning to `O=C(Nc1ccc(C(F)(F)F)nc1)C1=NOC2(C=C(Br)C(=O)C(Br)=C2)C1` [Compound 31, 7,9-Dibromo-8-oxo-N-[6-(trifluoromethyl)pyridin-3-yl]-1-oxa-2-azaspiro[4.5] deca-2,6,9-triene-3-carboxamide], the CC50 in [1] (A-375, 48 h) came to 5.3 µM. For the same molecule, the cytotoxicity at 50 µM in series [1] (setting [11]) is 98.6%. Besides, the “Selectivity Index (SI)” value in series [1] is recorded as 0.4 (0.1). Also, the CC50 at 48 h in series [2] (setting [12]) is 2.1 µM.

One may read the CC50 as the concentration at which the toxic effect on the cells reaches its halfway point.
